Source: patent US11203582B2, “Benzamide derivatives for inhibiting endoplasmic reticulum (ER) stress” (The Board of Regents of the University of Oklahoma, priority 2017, dated 2021)

Assays:
Format in all cases: cell-based, rat
[1] = tested on: cleaved PARP; assay: Western blotting of cleaved PARP in Tm-treated INS-1 cells; settings: Tm co-treatment, 24 h
Protocol: To determine whether the increase in β-cell viability following treatment with 13d is caused by a suppression of apoptotic cell death, several apoptosis-related makers were measured. First, levels of cleaved caspase-3 and cleaved PARP were assayed by Western blotting. Caspase-3, a member of executioner caspases activated by cleavage, plays essential roles in initiating apoptotic signaling and executing the final stages of cell death, whereas the nuclear enzyme poly (ADP-ribose) polymerase (PARP) plays an important role in a number of cellular processes involving DNA repair and cell death. […] However, upon severe ER stress, caspase 3 undergoes proteolytic cleavage to produce two subunits that dimerize to form the active enzyme, which in turns cleaves PARP. […] A further assessment of apoptotic INS-1 cell death was performed using TUNEL assays to detect nuclear DNA fragmentation (a consequence of cell apoptosis) in situ.
INS-1 cells were seeded in 60-mm dishes at 8×10^5 cells/dish and treated for the indicated times. Cells were then washed with PBS and lysed with lysis buffer (Cell Signaling Technology, Danvers, Mass.) containing EDTA (Thermo, Ill.) and phosphatase inhibitors (Thermo). Aliquots of 20 μg total protein were separated on 7% SDS-PAGE gels (Life Technologies) and transferred to PVDF membranes (Life Technologies). […]

[2] = tested on: INS-1 cells; assay: TUNEL staining of Tm-treated INS-1 cells; settings: co-treatment with Tm, 24 h
Protocol: (A) INS-1 cells were treated with or without Tm (0.1 m/mL) in the presence of 13d at indicated concentrations or DMSO for 24 h. Cleaved caspase-3 and PARP were determined by Western blotting. α-Tubulin was used as a loading control. The data shown are representative of 3 independent experiments. (B) INS-1 cells were treated with or without Tm (0.1 m/mL) in the presence of 13d (0.111M) or DMSO for 48 h, and live-cell phase-contrast images were acquired (magnification 10×). The images shown are representative of 3 independent experiments. (C) TUNEL staining of INS-1 cells. INS-1 cells were treated with 0.111 g/mL of Tm with or without compound 13d for 24 h before TUNEL staining. DAPI was used as a nuclear marker. Magnification is 20×. The images shown are representative of 3 independent experiments. (D) Quantification of TUNEL staining from 20 fields of images. ** P<0.01 compared with Tm treatment alone.
To determine whether the increase in β-cell viability following treatment with 13d is caused by a suppression of apoptotic cell death, several apoptosis-related makers were measured. First, levels of cleaved caspase-3 and cleaved PARP were assayed by Western blotting. […]

[3] = tested on: XBP1s mRNA; assay: XBP1s mRNA (qRT-PCR and RT-PCR with gel electrophoresis) in Tm-treated INS-1 cells; settings: Tm 0.1 μg/mL co-treatment, 8 h
Protocol: INS-1 cells were treated with or without Tm (0.1 μg/mL) in the presence of 13d or DMSO for 8 h. (A) XBP1s mRNA levels were analyzed by qRT-PCR. Relative mRNA levels were normalized against the housekeeping gene Cyclophilin A using the comparative CT method. ** P<0.01 compared with Tm treatment alone. Bars indicate SD. (B) XBP1 mRNA levels were analyzed by RT-PCR and the products were resolved by agarose gel electrophoresis. The full-length (unspliced, XBP1u) and spliced (XBP1s) forms of XBP1 mRNA are indicated. Cyclophilin A mRNA was used as a loading control. Quantification was analyzed by ImageJ program shown at the bottom. The data shown are representative of 3 independent experiments.
Next, we determined the effect of 13d on the activation of IRE1α in β-cells under ER stress. […] We therefore used XBP1 splicing as a marker for the activation of the IRE1α pathway and determined the effect of 13d on IRE1α-mediated XBP1 splicing in INS-1 cells in the presence of Tm.
INS-1 cells were seeded at 4×10^5 cells/well in 6-well plates and treated with compounds for the indicated times. […] Relative mRNA levels were normalized against the housekeeping gene Cyclophilin A and were determined by ΔΔCt calculated from the difference in ΔCt values between the target gene and Cyclophilin A with and without treatment, based on comparative CT (cycle threshold) method. […]

[4] = tested on: Bip mRNA; assay: qRT-PCR of Bip mRNA in Tm-treated INS-1 cells; settings: Tm 0.1 μg/mL co-treatment, 8 h
Protocol: INS-1 cells were treated with or without Tm (0.1 μg/mL) in the presence of 13d or DMSO for 8 h. Bip (A) and GRP94 (B) mRNA levels were analyzed by qRT-PCR. Relative mRNA levels were normalized against the housekeeping gene Cyclophilin A using the comparative CT method. The results are the means of 3 replicate wells and representative of 3 independent experiments. ** P<0.01 compared with Tm treatment alone. Error bars indicate SD.
We then investigated the effects of 13d on the activation of ATF6 in β-cells under ER stress. Activated ATF6 acts as a homodimer or as an ATF6-XBP1s heterodimer to control the up-regulation of select UPR target genes including the chaperone proteins BiP and GRP94. Therefore, these two chaperone proteins were evaluated in the INS-1 cells in the presence of Tm.
INS-1 cells were seeded at 4×10^5 cells/well in 6-well plates and treated with compounds for the indicated times. Total RNA was extracted using TRIzol reagent (Invitrogen, Carlsbad, Calif.) according to the manufacturer's protocol, and 2 μg of total RNA was reverse transcribed using a Superscript kit (Invitrogen). […] Relative mRNA levels were normalized against the housekeeping gene Cyclophilin A and were determined by ΔΔCt calculated from the difference in ΔCt values between the target gene and Cyclophilin A with and without treatment, based on comparative CT (cycle threshold) method. […]

O=C(NCc1ccc(C(F)(F)F)cc1)c1cccc(CN2CCCCC2)c1 [Compound 13d, N-(4-trifluoromethylphenmethyl)-3-(N-piperidinyl)methyl benzamide]
Tm-induced cleavage of PARP [1]: completely or significantly diminished | TUNEL-positive cells [2]: 0.5% | Tm-induced increase in XBP1s mRNA level (qRT-PCR) [3]: abolished | Tm-induced generation of XBP1s mRNA (RT-PCR, electrophoretic separation) ([3]; FIG. 6B): inhibits | Tm-induced up-regulation of Bip mRNA [4]: almost completely reversed
